Measurements from patent US12077503B2, “Substituted cyclic amides and their use as herbicides” (FMC CORPORATION, priority 2015, dated 2024).
Like-named read-outs stand apart in the source and are kept apart here.

How the values were obtained:
Assay type in all cases: in vivo
Kochia (Kochia scoparia) [1] = test: Test A preemergence; conditions: Bassia scoparia, pre-emergence, 240 h, preemergence, 0 to 100 scale where 0 is no effect and 100 is complete control, read-out: Kochia plant response rating; for pest or weed control at 125 g/ha: 125 g ai/ha; for pest or weed control at 500 g/ha: 500 g ai/ha
Method in brief: (§1)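 Ratings of 0 (no effect) to 100 (complete control) come from visual comparison with untreated controls roughly 10 d after treatment. Test chemicals, formulated in a non-phytotoxic solvent mixture with surfactant, were applied either as a preemergence directed soil spray on seeded soil or postemergence to one- to two-leaf plants 2 to 10 cm tall.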

[2] = tested on: barnyardgrass (Echinochloa crus-galli); test: Test A preemergence; conditions: Echinochloa crus-galli, pre-emergence, 240 h, preemergence, 0 to 100 scale where 0 is no effect and 100 is complete control, read-out: Barnyardgrass plant response rating; for pest or weed control at 125 g/ha: 125 g ai/ha; for pest or weed control at 500 g/ha: 500 g ai/ha
Method in brief: as §1

[3] = tested on: giant foxtail (Setaria faberii); test: Test A preemergence; conditions: Setaria faberi, pre-emergence, 240 h, preemergence, 0 to 100 scale where 0 is no effect and 100 is complete control, read-out: Foxtail, Giant plant response rating; for pest or weed control at 125 g/ha: 125 g ai/ha; for pest or weed control at 500 g/ha: 500 g ai/ha
Method in brief: as §1

[4] = tested on: pigweed (Amaranthus retroflexus); test: Test A preemergence; conditions: Amaranthus retroflexus, pre-emergence, 240 h, preemergence, 0 to 100 scale where 0 is no effect and 100 is complete control, read-out: Pigweed plant response rating; for pest or weed control at 125 g/ha: 125 g ai/ha; for pest or weed control at 500 g/ha: 500 g ai/ha
[5] = tested on: ragweed (common ragweed, Ambrosia elatior); test: Test A preemergence; conditions: Ambrosia artemisiifolia, pre-emergence, 240 h, preemergence, 0 to 100 scale where 0 is no effect and 100 is complete control, read-out: Ragweed plant response rating; for pest or weed control at 125 g/ha: 125 g ai/ha; for pest or weed control at 500 g/ha: 500 g ai/ha
Method in brief: as §1

[6] = tested on: ryegrass, Italian (Italian ryegrass, Lolium multiflorum); test: Test A preemergence; conditions: Lolium multiflorum, pre-emergence, 240 h, preemergence, 0 to 100 scale where 0 is no effect and 100 is complete control, read-out: Ryegrass, Italian plant response rating; for pest or weed control at 125 g/ha: 125 g ai/ha; for pest or weed control at 500 g/ha: 500 g ai/ha
Method in brief: as §1

Kochia (Kochia scoparia) [7] = test: Test A postemergence; conditions: Bassia scoparia, post-emergence, 240 h, postemergence; for pest or weed control at 125 g/ha: 125 g ai/ha, visual injury vs untreated controls after approx. 10 d, 0 = no effect, 100 = complete control, read-out: Kochia plant response rating (0 to 100 scale); for pest or weed control at 500 g/ha: 500 g ai/ha, 0 to 100 scale, 0 is no effect, 100 is complete control, read-out: Kochia plant response rating
Method in brief: as §1

[8] = tested on: barnyardgrass (Echinochloa crus-galli); test: Test A postemergence; conditions: Echinochloa crus-galli, post-emergence, 240 h, postemergence; for pest or weed control at 125 g/ha: 125 g ai/ha, visual injury vs untreated controls after approx. 10 d, 0 = no effect, 100 = complete control, read-out: Barnyardgrass plant response rating (0 to 100 scale); for pest or weed control at 500 g/ha: 500 g ai/ha, 0 to 100 scale, 0 is no effect, 100 is complete control, read-out: Barnyardgrass plant response rating
Method in brief: as §1

[9] = tested on: blackgrass (Alopecurus myosuroides); test: Test A postemergence; conditions: Alopecurus myosuroides, post-emergence, 240 h, postemergence; for pest or weed control at 125 g/ha: 125 g ai/ha, visual injury vs untreated controls after approx. 10 d, 0 = no effect, 100 = complete control, read-out: Blackgrass plant response rating (0 to 100 scale); for pest or weed control at 500 g/ha: 500 g ai/ha, 0 to 100 scale, 0 is no effect, 100 is complete control, read-out: Blackgrass plant response rating
Method in brief: as §1

[10] = tested on: pigweed (Amaranthus retroflexus); test: Test A postemergence; conditions: Amaranthus retroflexus, post-emergence, 240 h, postemergence; for pest or weed control at 125 g/ha: 125 g ai/ha, visual injury vs untreated controls after approx. 10 d, 0 = no effect, 100 = complete control, read-out: Pigweed plant response rating (0 to 100 scale); for pest or weed control at 500 g/ha: 500 g ai/ha, 0 to 100 scale, 0 is no effect, 100 is complete control, read-out: Pigweed plant response rating
Method in brief: as §1

[11] = tested on: barnyardgrass (Echinochloa crus-galli); test: Test B flooded paddy test; conditions: Echinochloa crus-galli, 250 g ai/ha, Flood; 0 to 100 scale where 0 is no effect and 100 is complete control; read-out: Barnyardgrass plant response rating
Method in brief: (§2)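 Response scored visually against untreated controls, 0 = no effect and 100 = complete control, 13–15 d after treatment in the greenhouse. Compounds added to paddy water held 3 cm above soil surface. Treatment given at 2-leaf stage.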

[12] = tested on: ducksalad (Heteranthera limosa); test: Test B flooded paddy test; conditions: Heteranthera limosa, 250 g ai/ha, Flood; 0 to 100 scale where 0 is no effect and 100 is complete control; read-out: Ducksalad plant response rating
Method in brief: as §2

rice (Oryra sativa) = test: Test B flooded paddy test; conditions: Oryza sativa, 250 g ai/ha, Flood; 0 to 100 scale where 0 is no effect and 100 is complete control; read-out: Rice plant response rating
Method in brief: as §2

[13] = tested on: sedge, umbrella (small-flower umbrella sedge, Cyperus difformis); test: Test B flooded paddy test; conditions: Cyperus difformis, 250 g ai/ha, Flood; 0 to 100 scale where 0 is no effect and 100 is complete control; read-out: Sedge, Umbrella plant response rating
Method in brief: as §2

[14] = visual injury rating, approximately 10 d

SMILES | pest or weed control at 125 g/ha (Kochia (Kochia scoparia) [1]; approx. 10 d) | pest or weed control at 500 g/ha (Kochia (Kochia scoparia) [1]) | pest or weed control at 125 g/ha ([2]; approx. 10 d) | pest or weed control at 500 g/ha [2] | pest or weed control at 500 g/ha [3] | pest or weed control at 500 g/ha [4] | pest or weed control at 500 g/ha [5] | pest or weed control at 500 g/ha [6] | pest or weed control at 125 g/ha (Kochia (Kochia scoparia) [7]) | pest or weed control at 500 g/ha (Kochia (Kochia scoparia) [7]) | pest or weed control at 125 g/ha [8] | pest or weed control at 500 g/ha [8] | pest or weed control at 125 g/ha [9] | pest or weed control at 500 g/ha [9] | pest or weed control at 125 g/ha [10] | pest or weed control at 500 g/ha [10] | pest or weed control at 250 g/ha [11] | pest or weed control at 250 g/ha [12] | pest or weed control at 250 g/ha (rice (Oryra sativa)) | pest or weed control at 250 g/ha [13] | further results
CCc1ccc([C@H]2CNC(=O)[C@@H]2C(=O)Nc2ccccc2SC)cc1 [Compound 1178] | 40% | 70% | 20% | 50% | 70% | 50% | 50% | 20% | 20% | 40% | 0% | 30% | 0% | 20% | 0% | 0% | 20% | 90% | 20% | 0% | pest or weed control at 125 g/ha ([3]; approx. 10 d): 20%; pest or weed control at 125 g/ha ([4]; approx. 10 d): 20%; pest or weed control at 125 g/ha ([5]; approx. 10 d): 0%; pest or weed control at 125 g/ha ([6]; approx. 10 d): 0%
O=C1NC[C@H](c2nccs2)[C@H]1C(=O)Nc1cccc(F)c1F [Compound 1182] | 0% | 0% | 0% | 0% | 0% | 0% | 0% | 0% | 0% | 0% | 0% | 0% | 0% | 0% | 0% | 0% | 0% | 0% | 0% | 0% | pest or weed control at 125 g/ha ([3]; approx. 10 d): 0%; pest or weed control at 125 g/ha ([4]; approx. 10 d): 0%; pest or weed control at 125 g/ha ([5]; approx. 10 d): 0%; pest or weed control at 125 g/ha ([6]; approx. 10 d): 0%
CSc1ccccc1NC(=O)[C@H]1C(=O)N(C)C[C@@H]1c1ccc(C(F)(F)F)nc1 [Compound 1198] | – | 80% | – | 100% | 100% | 100% | 100% | 60% | 60% | 60% | 80% | 90% | 20% | 60% | 40% | 70% | 20% | 40% | 0% | 30% | pest or weed control at 125 g/ha (Kochia (Kochia scoparia) [1]; [14]): 80%; pest or weed control at 125 g/ha [2, 14]: 70%; pest or weed control at 125 g/ha [3, 14]: 100%; pest or weed control at 125 g/ha [4, 14]: 70%; pest or weed control at 125 g/ha [5, 14]: 70%; pest or weed control at 125 g/ha [6, 14]: 30%
CN1C[C@H](c2ccc(C#N)cc2)[C@@H](C(=O)Nc2ccccc2F)C1=O [Compound 1207] | – | 90% | – | 100% | 100% | 60% | 90% | 20% | 20% | 60% | 70% | 100% | 0% | 0% | 0% | 20% | 0% | 100% | 0% | 0% | pest or weed control at 125 g/ha (Kochia (Kochia scoparia) [1]; [14]): 30%; pest or weed control at 125 g/ha [2, 14]: 60%; pest or weed control at 125 g/ha [3, 14]: 80%; pest or weed control at 125 g/ha [4, 14]: 0%; pest or weed control at 125 g/ha [5, 14]: 30%; pest or weed control at 125 g/ha [6, 14]: 0%
